# Species on record: Rattus norvegicus
# Experiment: DrugMatrix - Regimen: Daily Repeat
# Type: toxicity, organism-based, Sprague-Dawley
# Set-up: regimen Daily Repeat, gender Male, age 6-8 weeks
# Details: in vivo, po, route oral GAVAGE, […]; for ABSOLUTE BASOPHIL / BASOPHIL / NUCLEATED RED BLOOD CELLS / ABSOLUTE EOSINOPHIL / EOSINOPHIL / HEMOGLOBIN / ABSOLUTE LYMPHOCYTE / ABSOLUTE MONOCYTE / ABSOLUTE SEGMENTED NEUTROPHIL / ERYTHROCYTE COUNT / HEMATOCRIT / LEUKOCYTE COUNT / LYMPHOCYTE / MEAN CORPUSCULAR HEMOGLOBIN / MEAN CORPUSCULAR HEMOGLOBIN CONCENTRATION / MEAN CORPUSCULAR VOLUME / MONOCYTE / NEUTROPHIL / PLATELET COUNT: tissue Blood; for TOTAL BILIRUBIN / ALANINE AMINOTRANSFERASE / ALBUMIN / ALKALINE PHOSPHATASE / ASPARTATE AMINOTRANSFERASE / BLOOD UREA NITROGEN / CARBON DIOXIDE / CHLORIDE / CHOLESTEROL / CREATINE PHOSPHOKINASE / CREATININE / GLUCOSE / LACTATE DEHYDROGENASE / LIPASE / PHOSPHORUS / POTASSIUM / SODIUM / TOTAL PROTEIN / URIC ACID: tissue Plasma
# [1] = 0 mg/kg, 72 h, dose level Control, time 3 day
# [2] = 0 mg/kg, 120 h, dose level Control, time 5 day
# [3] = 3 mg/kg, 72 h, dose level Low, time 3 day
# [4] = 3 mg/kg, 120 h, dose level Low, time 5 day
# [5] = 9 mg/kg, 72 h, dose level M1, time 3 day
compound,measurement,setting,value
CS(=O)(=O)OCCCCOS(C)(=O)=O [BUSULFAN],ABSOLUTE BASOPHIL,[1],0 CELLS/uL
same,BASOPHIL,[1],0%
same,NUCLEATED RED BLOOD CELLS,[1],0 /100WBC
same,TOTAL BILIRUBIN,[1],0.2 mg/dL
same,ABSOLUTE BASOPHIL,[2],0 CELLS/uL
same,ABSOLUTE EOSINOPHIL,[2],0 CELLS/uL
same,BASOPHIL,[2],0%
same,EOSINOPHIL,[2],0%
same,HEMOGLOBIN,[2],13.5 G/DL
same,ABSOLUTE BASOPHIL,[3],0 CELLS/uL
same,ABSOLUTE EOSINOPHIL,[3],108.33 CELLS/uL
same,ABSOLUTE LYMPHOCYTE,[3],8850.33 CELLS/uL
same,ABSOLUTE MONOCYTE,[3],34.33 CELLS/uL
same,ABSOLUTE SEGMENTED NEUTROPHIL,[3],773.67 CELLS/uL
same,BASOPHIL,[3],0%
same,EOSINOPHIL,[3],1%
same,ERYTHROCYTE COUNT,[3],4.94 x10E6/uL
same,HEMATOCRIT,[3],32%
same,HEMOGLOBIN,[3],12.67 G/DL
same,LEUKOCYTE COUNT,[3],9.77 x10E3/uL
same,LYMPHOCYTE,[3],91%
same,MEAN CORPUSCULAR HEMOGLOBIN,[3],25.67 pg
same,MEAN CORPUSCULAR HEMOGLOBIN CONCENTRATION,[3],39.6 G/DL
same,MEAN CORPUSCULAR VOLUME,[3],64.8 fL
same,MONOCYTE,[3],0.33%
same,NEUTROPHIL,[3],7.67%
same,NUCLEATED RED BLOOD CELLS,[3],0 /100WBC
same,PLATELET COUNT,[3],940.33 x10E3/uL
same,ALANINE AMINOTRANSFERASE,[3],62.33 u/L
same,ALBUMIN,[3],3.77 G/DL
same,ALKALINE PHOSPHATASE,[3],286.67 u/L
same,ASPARTATE AMINOTRANSFERASE,[3],86.67 u/L
same,BLOOD UREA NITROGEN,[3],12.33 mg/dL
same,CARBON DIOXIDE,[3],33.5 mmol/L
same,CHLORIDE,[3],101 MEQ/L
same,CHOLESTEROL,[3],62.33 mg/dL
same,CREATINE PHOSPHOKINASE,[3],229.33 u/L
same,CREATININE,[3],0.12 mg/dL
same,GLUCOSE,[3],162.67 mg/dL
same,LACTATE DEHYDROGENASE,[3],71.67 u/L
same,LIPASE,[3],12 u/L
same,PHOSPHORUS,[3],10 mg/dL
same,POTASSIUM,[3],5.22 MEQ/L
same,SODIUM,[3],144.35 MEQ/L
same,TOTAL BILIRUBIN,[3],0.13 mg/dL
same,TOTAL PROTEIN,[3],5.37 G/DL
same,URIC ACID,[3],0.47 mg/dL
same,ABSOLUTE BASOPHIL,[4],0 CELLS/uL
same,ABSOLUTE EOSINOPHIL,[4],12.67 CELLS/uL
same,ABSOLUTE LYMPHOCYTE,[4],5804 CELLS/uL
same,ABSOLUTE MONOCYTE,[4],73.33 CELLS/uL
same,ABSOLUTE SEGMENTED NEUTROPHIL,[4],310 CELLS/uL
same,BASOPHIL,[4],0%
same,EOSINOPHIL,[4],0.33%
same,ERYTHROCYTE COUNT,[4],5.4 x10E6/uL
same,HEMATOCRIT,[4],33.53%
same,HEMOGLOBIN,[4],12.9 G/DL
same,LEUKOCYTE COUNT,[4],6.2 x10E3/uL
same,LYMPHOCYTE,[4],92.67%
same,MEAN CORPUSCULAR HEMOGLOBIN,[4],23.9 pg
same,MEAN CORPUSCULAR HEMOGLOBIN CONCENTRATION,[4],38.5 G/DL
same,MEAN CORPUSCULAR VOLUME,[4],62.07 fL
same,MONOCYTE,[4],1.33%
same,NEUTROPHIL,[4],5.67%
same,NUCLEATED RED BLOOD CELLS,[4],0 /100WBC
same,PLATELET COUNT,[4],1068.67 x10E3/uL
same,ALANINE AMINOTRANSFERASE,[4],47.67 u/L
same,ALBUMIN,[4],4.13 G/DL
same,ALKALINE PHOSPHATASE,[4],363 u/L
same,ASPARTATE AMINOTRANSFERASE,[4],87 u/L
same,BLOOD UREA NITROGEN,[4],12.33 mg/dL
same,CARBON DIOXIDE,[4],28.67 mmol/L
same,CHLORIDE,[4],100 MEQ/L
same,CHOLESTEROL,[4],62 mg/dL
same,CREATINE PHOSPHOKINASE,[4],290.67 u/L
same,CREATININE,[4],0.16 mg/dL
same,GLUCOSE,[4],165.67 mg/dL
same,LACTATE DEHYDROGENASE,[4],77.67 u/L
same,LIPASE,[4],13.33 u/L
same,PHOSPHORUS,[4],9.3 mg/dL
same,POTASSIUM,[4],5.76 MEQ/L
same,SODIUM,[4],145.25 MEQ/L
same,TOTAL BILIRUBIN,[4],0.17 mg/dL
same,TOTAL PROTEIN,[4],6 G/DL
same,URIC ACID,[4],0.53 mg/dL
same,ABSOLUTE BASOPHIL,[5],0 CELLS/uL
same,ABSOLUTE EOSINOPHIL,[5],0 CELLS/uL
same,ABSOLUTE LYMPHOCYTE,[5],12304.67 CELLS/uL
same,ABSOLUTE MONOCYTE,[5],88.33 CELLS/uL
same,ABSOLUTE SEGMENTED NEUTROPHIL,[5],840.33 CELLS/uL
same,BASOPHIL,[5],0%
same,EOSINOPHIL,[5],0%
same,ERYTHROCYTE COUNT,[5],5.46 x10E6/uL
same,HEMATOCRIT,[5],33.63%
same,HEMOGLOBIN,[5],13.23 G/DL
same,LEUKOCYTE COUNT,[5],13.23 x10E3/uL
same,LYMPHOCYTE,[5],92.67%
same,MEAN CORPUSCULAR HEMOGLOBIN,[5],24.27 pg
same,MEAN CORPUSCULAR HEMOGLOBIN CONCENTRATION,[5],39.37 G/DL
same,MEAN CORPUSCULAR VOLUME,[5],61.57 fL
same,MONOCYTE,[5],0.67%
same,NEUTROPHIL,[5],6.67%
same,NUCLEATED RED BLOOD CELLS,[5],0 /100WBC
same,PLATELET COUNT,[5],1234.33 x10E3/uL
same,ALANINE AMINOTRANSFERASE,[5],56.33 u/L
same,ALBUMIN,[5],4.03 G/DL
same,ALKALINE PHOSPHATASE,[5],362 u/L
same,ASPARTATE AMINOTRANSFERASE,[5],76 u/L
same,BLOOD UREA NITROGEN,[5],13 mg/dL
same,CARBON DIOXIDE,[5],29.33 mmol/L
same,CHLORIDE,[5],102.33 MEQ/L
same,CHOLESTEROL,[5],77 mg/dL
same,CREATINE PHOSPHOKINASE,[5],320.33 u/L
same,CREATININE,[5],0.19 mg/dL
same,GLUCOSE,[5],162.67 mg/dL
same,LACTATE DEHYDROGENASE,[5],161.33 u/L
same,LIPASE,[5],12 u/L
same,PHOSPHORUS,[5],10.37 mg/dL

# — ChEMBL document CHEMBL3885881, “DrugMatrix”
